Data as given in the NIST ThermoML archive (doi:10.1021/je300997v).
± gives the expanded uncertainty stated by the source.

Experiment: xn = mol fraction of the nth substance listed
Conditions: 101 kPa, Liquid; for viscosity: Capillary tube (Ostwald / Ubbelohde) method; for mass density: Pycnometric method; for electrical conductivity: conductivity meter

C[N+](C)(C)CCO.[Cl-] [choline chloride] + Oc1ccccc1
Conditions	electrical conductivity [S/m]	mass density [kg/m3]	viscosity [mPa·s]
293.2 K, x2 = 0.6667	0.14 ± 0.003	1099.5 ± 2.4	120.77 ± 7.6
293.2 K, x2 = 0.75	0.238 ± 0.005	1094.8 ± 2.4	57.84 ± 3.6
293.2 K, x2 = 0.8	0.275 ± 0.006	1091.8 ± 2.4	40.23 ± 2.5
293.2 K, x2 = 0.8333	0.281 ± 0.006	1089.8 ± 2.4	31.96 ± 2
293.2 K, x2 = 0.8571	0.273 ± 0.005	1088.5 ± 2.4	27.03 ± 1.7
298.2 K, x2 = 0.6667	0.205 ± 0.004	1096.7 ± 2.4	90.33 ± 5.6
298.2 K, x2 = 0.75	0.314 ± 0.006	1092.1 ± 2.4	44.64 ± 2.8
298.2 K, x2 = 0.8	0.345 ± 0.007	1089.3 ± 2.4	31.55 ± 1.9
298.2 K, x2 = 0.8333	0.347 ± 0.007	1087 ± 2.4	25.25 ± 1.6
298.2 K, x2 = 0.8571	0.338 ± 0.007	1085.2 ± 2.4	21.43 ± 1.3
303.2 K, x2 = 0.6667	0.265 ± 0.005	1093 ± 2.4	68.41 ± 4.2
303.2 K, x2 = 0.75	0.388 ± 0.008	1089 ± 2.4	35.17 ± 2.2
303.2 K, x2 = 0.8	0.421 ± 0.008	1086 ± 2.4	25.2 ± 1.6
303.2 K, x2 = 0.8333	0.425 ± 0.009	1083.8 ± 2.4	19.75 ± 1.2
303.2 K, x2 = 0.8571	0.409 ± 0.008	1081.8 ± 2.4	16.82 ± 1
308.2 K, x2 = 0.6667	0.337 ± 0.007	1090.1 ± 2.4	53.43 ± 3.3
308.2 K, x2 = 0.75	0.477 ± 0.01	1085.8 ± 2.4	28.22 ± 1.7
308.2 K, x2 = 0.8	0.507 ± 0.01	1081.9 ± 2.4	20.25 ± 1.2
308.2 K, x2 = 0.8333	0.508 ± 0.01	1080.3 ± 2.4	16.16 ± 0.99
308.2 K, x2 = 0.8571	0.487 ± 0.01	1078.2 ± 2.4	13.76 ± 0.84
313.2 K, x2 = 0.6667	0.416 ± 0.008	1087.3 ± 2.4	42.42 ± 2.6
313.2 K, x2 = 0.75	0.576 ± 0.012	1082.9 ± 2.4	23.08 ± 1.4
313.2 K, x2 = 0.8	0.602 ± 0.012	1079.5 ± 2.4	16.71 ± 1
313.2 K, x2 = 0.8333	0.599 ± 0.012	1076.1 ± 2.4	13.44 ± 0.82
313.2 K, x2 = 0.8571	0.574 ± 0.011	1074.5 ± 2.4	11.45 ± 0.7
318.2 K, x2 = 0.6667	0.509 ± 0.01	1084.3 ± 2.4	34.34 ± 2.1
318.2 K, x2 = 0.75	0.677 ± 0.014	1079.5 ± 2.4	19.14 ± 1.2
318.2 K, x2 = 0.8	0.706 ± 0.014	1076.3 ± 2.4	14 ± 0.86
318.2 K, x2 = 0.8333	0.696 ± 0.014	1073.6 ± 2.4	11.26 ± 0.69
318.2 K, x2 = 0.8571	0.666 ± 0.013	1071.7 ± 2.4	9.46 ± 0.58
